Data taken from patent publication US20260055097A9, “NRF2 PROTEIN DEGRADERS” (Ganymede Oncology, Inc., priority 2022, published 2026).

Columns and labels:
Assay type in all cases: cell-based
Nrf2 [1] = molecular target: T1, Nrf2 (Homo sapiens, UniProt Q16236); test: Protein degradation assay in huH1 cells by Western blot; design: tested for protein degradation in huH1 cells; host or cells: huH1 (Huh1) human hepatoma cells
T1 sequence (Q16236 1-605): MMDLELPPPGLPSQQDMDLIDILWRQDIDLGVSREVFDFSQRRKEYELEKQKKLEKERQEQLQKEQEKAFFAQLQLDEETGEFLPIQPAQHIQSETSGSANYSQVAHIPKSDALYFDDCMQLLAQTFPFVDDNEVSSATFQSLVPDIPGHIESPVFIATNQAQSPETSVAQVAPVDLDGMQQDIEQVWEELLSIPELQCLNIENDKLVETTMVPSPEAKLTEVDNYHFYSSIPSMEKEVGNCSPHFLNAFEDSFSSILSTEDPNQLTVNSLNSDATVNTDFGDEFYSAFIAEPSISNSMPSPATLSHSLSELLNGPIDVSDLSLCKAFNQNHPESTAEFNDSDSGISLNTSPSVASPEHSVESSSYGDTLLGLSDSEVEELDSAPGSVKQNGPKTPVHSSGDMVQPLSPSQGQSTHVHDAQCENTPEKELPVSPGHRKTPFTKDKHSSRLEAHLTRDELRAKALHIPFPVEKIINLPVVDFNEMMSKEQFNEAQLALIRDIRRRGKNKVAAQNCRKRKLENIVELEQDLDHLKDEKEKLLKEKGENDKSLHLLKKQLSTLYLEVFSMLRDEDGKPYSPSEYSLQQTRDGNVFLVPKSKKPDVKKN
Protocol: Representative Compounds of the Disclosure were tested for protein degradation in huH1 cells (Vendor: JCRB: Cat #JCRB0199; Description: Human hepatoma) by Western blot analysis according to the following general protocol.
Day 0: Plated the Huh1 cells into 10-cm dishes (1.5×10^6/dish)
Day 1: Treated the cells with compounds at five concentrations, e.g., 0.01 μM, 0.04 μM, 0.11 μM, 0.33 μM and 1 μM; or 0.4 μM, 1.1 μM, 3.3 μM, 10 μM, and 30 μM.
Day 4: Harvested the cell pellets, spilt 1/3 of the pellet to extract RNA by Nucleospin RNA plus kit and measure Nrf2 and GPX2 by RT-PCR, the remaining 2/3 of the pellet to run Western blot analysis.
• a) Cell samples were lysed with lysis buffer (1×Cell lysis buffer added Protease inhibitor and phosphatase inhibitor) on ice for 5˜10 min and spun at 15,000 rpm in an Eppendorf microfuge for 15 min at 4° C. • b) The protein supernatant was collected in a new 1.5 ml tube and the protein concentrations were determined by the Pierce BCA kit (Thermo #23225). • c) Mixed protein sample with 5×SDS-PAGE loading buffer. • d) Boiled for 5 min. • e) Cooled at RT or on ice for 5 min. • f) Flash spun to bring down condensation prior to loading gel.
• a) After flash spinning the samples, 20 μg protein were loaded into the wells. • b) Using SDS-PAGE running buffer. • c) Run with Constant Voltage (70 V) for 1.5-2 hr. Membrane transfer • a) Assembled “sandwich” for Invitrogen iBlot. • b) Transferred for 9 min using P0 program. • c) Immersed membrane in Odyssey blocking buffer or 5% BSA for at least 1 hr.
• a) Incubated with 1st Antibody 1:500 diluted in blocking buffer overnight at 4° C. • b) Washed 4×15 min with 0.05-0.1% Tween 20 in TBS. • c) Incubated with secondary antibody 1:10K diluted in blocking buffer for at least 1 hr at RT. • d) Washed 3×15 min with 0.05-0.1% Tween 20 in TBS. • e) Detected with ODYSSEY (Li—COR) The results are provided in Table 5.

A549 = test: Cancer cell viability, A549 (CellTiter-Glo); conditions: Homo sapiens, 72 h, A549 cells, 3 days, read-out: Cellular IC50 (μM) A549
Summary of the method: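 A549 and/or LK-2 lung carcinoma cells seeded overnight (20 K/mL A549; 35 K/mL LK-2), then exposed to compound for 3 days. Viability read as CellTiter-Glo luminescence after 15 min lysis; data fitted to curves.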

LK-2 = test: Cancer cell viability, LK-2 (CellTiter-Glo); conditions: Homo sapiens, LK-2, 72 h, LK-2 cells, 3 days, read-out: Cellular IC50 (μM) LK-2
Protocol: Representative Compounds of the Disclosure were tested in A549 (Vendor: ATCC; Cat #CCL-185; Description: lung, carcinoma) and/or LK-2 (Vendor: Riken; Cat #RCB1970; Description: lung, squamous cell carcinoma) cellular viability assays according to the following general protocol. • 1. Observed the cells under microscope. • 2. Aspirated the media and added 5 mL trypsin and incubate for 3 mins. • 3. Added 10 mL fresh media and harvested all the cells in to 15 mL tubes. • 4. Centrifuged the cells at 1000 rpm for 5 mins. • 5. Re-suspended the cells with 11 mL media and took 1 mL to determine the cell number and viability. • 6. Prepared cells suspension at 20 K/mL (A549) or 35 K/mL (LK-2) • 7. Seeded the cells into 96-well plate and incubated for overnight. • 8. Added compounds into each well with a HPD300 machine (nine three-fold dilutions typically starting at 30 µM final concentration) and incubated for 3 days. • 9. After 3 days, took out the plates from the incubator and observed the cells under microscope. • 10. Passed a film at the bottom of the plates. • 11. Equilibrated the plate and its contents at room temperature for approximately 30 minutes. • 12. Thawed the CellTiter-Glo® Buffer and equilibrated to room temperature prior to use. • 13. Equilibrated the lyophilized CellTiter-Glo® Substrate to room temperature prior to use. • 14. Transferred 100 ml of CellTiter-Glo® Buffer into the amber bottle containing CellTiter-Glo® Substrate to reconstituted the lyophilized enzyme/substrate mixture. • 15. Mixed by gently vortexing, swirling or inverting the contents to obtain a homogeneous solution. • 16. Added 100 μL CellTiter-Glo® Reagent into each well • 17. Mixed contents for 15 minutes on an orbital shaker to induce cell lysis. • 18. Recorded luminescence with EnSpire machine. • 19. Passed the raw data into the file and analyzed the data with XLfit software.

Nrf2 [2] = molecular target: T1, Nrf2; test: Nrf2 degradation in A549 HiBiT-Nrf2 cells, Nano-Glo HiBiT lytic detection (HiBiT readout); design: host or cells: A549 HiBiT-Nrf2 cells (engineered line bought from Promega)
Summary of the method: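 A549 HiBiT-Nrf2 cells seeded at 5,000 cells/well in Ham's F-12 with 10% FBS, then treated next day for 6 h and 20 h at 37 °C, 5% CO2. Nrf2 degradation read by Nano-Glo HiBiT lytic luminescence after 30 min at room temperature; staurosporine served as control.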

[3] = X marks the class >10 μM, read-out: DC50 huHI1 cells >10 μM
[4] = 6 h, read-out: DC50 (nM) at 6 h
[5] = 20 h, read-out: DC50 (nM) at 20 h

DC50 (Nrf2 [1]; [3]) [nM] | DC50 (Nrf2 [1]; X marks the class <100 nM, read-out: DC50 huHI1 cells <100 nM) [nM] | IC50 (A549) [µM] | IC50 (LK-2) [µM] | DC50 (Nrf2 [2]; [4]) [nM] | DC50 (Nrf2 [2]; [5]) [nM] | SMILES
> 10000 |  |  |  |  |  | Cc1ccccc1C(=O)N1CCc2cc(-c3nc(NC(=O)Cc4cccc(OCCOCCOCCOCCNc5cccc6c5C(=O)N(C5CCC(=O)NC5=O)C6=O)c4)sc3C)ccc21 (stereo not shown) [Cpd. No. 3, 2-(3-(2-(2-(2-(2-((2-(2,6-dioxopiperidin-3-yl)-1,3-dioxoisoindolin-4-yl)amino)ethoxy)ethoxy)ethoxy)ethoxy)phenyl)-N-(5-methyl-4-(1-(2-methylbenzoyl)indolin-5-yl)thiazol-2-yl)acetamide]
> 10000 |  |  |  |  |  | Cc1ccccc1C(=O)N1CCc2cc(-c3nc(NC(=O)Cc4cccc(OCCOCCOCCOCCOCCNc5cccc6c5C(=O)N(C5CCC(=O)NC5=O)C6=O)c4)sc3C)ccc21 (stereo not shown) [Cpd. No. 4, 2-(3-((14-((2-(2,6-dioxopiperidin-3-yl)-1,3-dioxoisoindolin-4-yl)amino)-3,6,9,12-tetraoxatetradecyl)oxy)phenyl)-N-(5-methyl-4-(1-(2-methylbenzoyl)indolin-5-yl)thiazol-2-yl)acetamide]
> 10000 |  |  |  |  |  | Cc1ccccc1C(=O)N1CCc2cc(-c3nc(NC(=O)Cc4cccc(OCCOCCOCCOCCOCCOCCNc5cccc6c5C(=O)N(C5CCC(=O)NC5=O)C6=O)c4)sc3C)ccc21 (stereo not shown) [Cpd. No. 5, 2-(3-((17-((2-(2,6-dioxopiperidin-3-yl)-1,3-dioxoisoindolin-4-yl)amino)-3,6,9,12,15-pentaoxaheptadecyl)oxy)phenyl)-N-(5-methyl-4-(1-(2-methylbenzoyl)indolin-5-yl)thiazol-2-yl)acetamide]
 | < 100 |  |  |  |  | Cc1ccccc1C(=O)N1CCc2cc(-c3nc(NC(=O)Cc4cccc(OCCOCCOCCOc5cccc6c5C(=O)N(C5CCC(=O)NC5=O)C6=O)c4)sc3C)ccc21 (stereo not shown) [Cpd. No. 7, 2-(3-(2-(2-(2-((2-(2,6-dioxopiperidin-3-yl)-1,3-dioxoisoindolin-4-yl)oxy)ethoxy)ethoxy)ethoxy)phenyl)-N-(5-methyl-4-(1-(2-methylbenzoyl)indolin-5-yl)thiazol-2-yl)acetamide]
> 10000 |  |  |  |  |  | Cc1ccccc1C(=O)N1CCc2cc(-c3nc(NC(=O)Cc4cccc(OCCOCCOCCOCCOc5cccc6c5C(=O)N(C5CCC(=O)NC5=O)C6=O)c4)sc3C)ccc21 (stereo not shown) [Cpd. No. 8, 2-(3-(2-(2-(2-(2-((2-(2,6-dioxopiperidin-3-yl)-1,3-dioxoisoindolin-4-yl)oxy)ethoxy)ethoxy)ethoxy)ethoxy)phenyl)-N-(5-methyl-4-(1-(2-methylbenzoyl)indolin-5-yl)thiazol-2-yl)acetamide]
 |  | > 30 | > 30 | > 3000 | > 3000 | Cc1ccccc1C(=O)N1CCc2cc(-c3nc(NC(=O)Cc4cccc(OCCN5CCN(c6cccc7c6C(=O)N(C6CCC(=O)NC6=O)C7=O)CC5)c4)sc3C)ccc21 (stereo not shown) [Cpd. No. 31, 2-(3-(2-(4-(2-(2,6-dioxopiperidin-3-yl)-1,3-dioxoisoindolin-4-yl)piperazin-1-yl)ethoxy)phenyl)-N-(5-methyl-4-(1-(2-methylbenzoyl)indolin-5-yl)thiazol-2-yl)acetamide]
 |  | 0.03 | 0.01 | < 300 | > 3000 | Cc1sc(NC(=O)Cc2cccc(OCCOCCNc3cccc4c3C(=O)N(C3CCC(=O)NC3=O)C4=O)c2)nc1-c1ccc2c(c1)CCN2C(=O)c1cncn1C (stereo not shown) [Cpd. No. 35, 2-(3-(2-(2-((2-(2,6-dioxopiperidin-3-yl)-1,3-dioxoisoindolin-4-yl)amino)ethoxy)ethoxy)phenyl)-N-(5-methyl-4-(1-(1-methyl-1H-imidazole-5-carbonyl)indolin-5-yl)thiazol-2-yl)acetamide]
 |  | 0.06 | 0.03 | < 300 | < 300 | Cc1sc(NC(=O)Cc2ccc(F)c(OCCOCCNc3cccc4c3C(=O)N(C3CCC(=O)NC3=O)C4=O)c2)nc1-c1ccc2c(c1)CCN2C(=O)C1CC1 (stereo not shown) [Cpd. No. 36, N-(4-(1-(cyclopropanecarbonyl)indolin-5-yl)-5-methylthiazol-2-yl)-2-(3-(2-(2-((2-(2,6-dioxopiperidin-3-yl)-1,3-dioxoisoindolin-4-yl)amino)ethoxy)ethoxy)-4-fluorophenyl)acetamide]
 |  | 0.04 | 0.01 | < 300 | < 300 | Cc1sc(NC(=O)Cc2ccc(F)c(OCCOCCNc3cccc4c3C(=O)N(C3CCC(=O)NC3=O)C4=O)c2)nc1-c1ccc2c(c1)CCN2C(=O)c1cncn1C (stereo not shown) [Cpd. No. 37, 2-(3-(2-(2-((2-(2,6-dioxopiperidin-3-yl)-1,3-dioxoisoindolin-4-yl)amino)ethoxy)ethoxy)-4-fluorophenyl)-N-(5-methyl-4-(1-(1-methyl-1H-imidazole-5-carbonyl)indolin-5-yl)thiazol-2-yl)acetamide]
 |  | 0.11 | 0.08 | < 300 | < 300 | Cc1sc(NC(=O)Cc2cccc(OCCCCCNc3cccc4c3C(=O)N(C3CCC(=O)NC3=O)C4=O)c2)nc1-c1ccc2c(c1)CCN2C(=O)C1CC1 (stereo not shown) [Cpd. No. 40, N-(4-(1-(cyclopropanecarbonyl)indolin-5-yl)-5-methylthiazol-2-yl)-2-(3-((5-((2-(2,6-dioxopiperidin-3-yl)-1,3-dioxoisoindolin-4-yl)amino)pentyl)oxy)phenyl)acetamide]
